Series [1] relates to Chikungunya virus. Put plainly: Antiviral activity against Chikungunya virus 899 infected in African green monkey Vero cells assessed as inhibition of virus-induced cytopathic effect after 6 to 7 days by MTS assay. Type of series: functional. The note with it: for EC50: Chikungunya virus, 899, Vero.
Series [2] relates to Vero. The experiment in a line: (§1) Cytotoxicity against African green monkey Vero cells assessed as reduction in metabolic activity by MTS assay. Type of series: ADME, cell-based. Conditions: chlorocebus sabaeus, vero. For orientation: Formazan colour is commonly taken as a measure of viable cells.
The nature of series [3]: Selectivity index, ratio of CC50 for African green monkey Vero cells to EC50 for Chikungunya virus 899 infected in African green monkey Vero cells. Type of series: toxicity. Conditions: read-out: Ratio CC50/EC50.
The nature of series [4]: as §1. Conditions: chlorocebus sabaeus, Vero cells. Type of series: ADME, cell-based.

The values below come from ChEMBL document CHEMBL3994570, “Euphorbia dendroides Latex as a Source of Jatrophane Esters: Isolation, Structural Analysis, Conformational Study, and Anti-CHIKV Activity” (J Nat Prod, 2016).

Structures are written as SMILES. Calls of active or inactive are those of the source. No cut-off for these calls is given here.

With `C=C1[C@H](OC(=O)c2ccccc2)[C@@H](OC(C)=O)[C@@H](OC(C)=O)C(C)(C)/C=C/[C@H](C)C(=O)[C@@]2(O)C[C@@](C)(OC(C)=O)[C@H](O)[C@@H]2[C@H]1OC(=O)C(C)CC` (some centres not stated), in series [1], the inhibition entry is “inactive”. The Activity result in series [2] was “Non-Toxic”.

Regarding `C=C1[C@H](OC(=O)c2ccccc2)[C@@H](OC(C)=O)[C@@H](OC(C)=O)C(C)(C)/C=C/[C@H](C)C(=O)[C@@]2(O)C[C@@](C)(OC(C)=O)[C@H](OC(C)=O)[C@@H]2[C@H]1OC(=O)C(C)C`, the inhibition entry in series [1] was “inactive”.

For `C=C1[C@H](OC(=O)c2ccccc2)[C@@H](O)[C@@H](OC(C)=O)C(C)(C)/C=C/[C@H](C)C(=O)[C@@]2(O)C[C@@](C)(OC(C)=O)[C@H](O)[C@@H]2[C@H]1OC(=O)c1ccccc1`, the inhibition result in series [1] was “inactive”. Besides, the Activity entry in series [2] is “Non-Toxic”.

Regarding `C=C1[C@H](O)[C@H]2[C@@H](OC(=O)c3ccccc3)[C@](C)(O)C[C@]2(O)C(=O)[C@@H](C)/C=C/C(C)(C)[C@H](OC(C)=O)[C@H](OC(C)=O)[C@H]1OC(=O)c1ccccc1`, the inhibition result in series [1] was “inactive”.

For the compound `CC(=O)O[C@H]1[C@@H](OC(C)=O)C(C)(C)/C=C/[C@@](C)(O)C(=O)[C@@]2(O)C[C@@](C)(OC(C)=O)[C@H](OC(C)=O)[C@@H]2[C@H]2OC(=O)CC[C@@]2(OC(C)=O)[C@@H]1OC(=O)C(C)C`, the inhibition result in series [1] is “inactive”.

For `C=C1[C@H](OC(=O)C(C)C)[C@@H](OC(C)=O)[C@@H](OC(C)=O)C(C)(C)/C=C/[C@H](C)C(=O)[C@@]2(O)C[C@@](C)(OC(C)=O)[C@H](OC(=O)c3ccccc3)[C@@H]2[C@H]1OC(=O)C(C)C`, the inhibition entry in series [1] was “inactive”.

In the case of `C=C1[C@H](C(=O)C(C)C)[C@H]2[C@@H](OC(C)=O)[C@](C)(O)C[C@]2(O)C(=O)[C@@H](C)/C=C/C(C)(C)[C@H](OC(C)=O)[C@H](OC(C)=O)[C@H]1OC(=O)c1ccccc1`, the inhibition result in series [1] is “inactive”.

`C=C1[C@H](C(=O)C(C)C)[C@H]2[C@@H](OC(C)=O)[C@@H](C)C[C@]2(O)C(=O)[C@@H](C)/C=C/C(C)(C)[C@H](OC(C)=O)[C@H](OC(C)=O)[C@H]1OC(=O)c1ccccc1`: the inhibition entry in series [1] is “inactive”.

As to `C=C1[C@H](OC(=O)c2ccccc2)[C@@H](OC(C)=O)[C@@H](OC(C)=O)C(C)(C)/C=C/[C@H](C)C(=O)[C@@]2(O)C[C@@](C)(OC(C)=O)[C@H](O)[C@@H]2[C@H]1OC(=O)C(C)C`, the inhibition result in series [1] is “inactive”.

`CC(=O)O[C@H]1[C@@H](OC(C)=O)C(C)(C)/C=C/[C@H](C)C(=O)[C@@]2(OC(C)=O)C[C@@](C)(OC(C)=O)[C@H](O)[C@@H]2[C@H]2OC(=O)CC[C@@]2(OC(C)=O)[C@@H]1OC(=O)C(C)C`: the inhibition result in series [1] is “inactive”.

For `C=C1[C@H](OC(=O)c2ccccc2)[C@@H](OC(C)=O)[C@@H](OC(C)=O)C(C)(C)/C=C/[C@H](C)C(=O)[C@@]2(O)C[C@@](C)(OC(C)=O)[C@H](OC(=O)C(C)C)[C@@H]2[C@H]1OC(=O)C(C)C`, the inhibition result in series [1] is “inactive”.

For `CC(=O)O[C@H]1[C@@H](OC(C)=O)C(C)(C)/C=C/[C@H](C)C(=O)[C@@]2(O)C[C@@](C)(OC(C)=O)[C@H](OC(C)=O)[C@@H]2[C@H]2OC(=O)CC[C@@]2(OC(=O)C(C)C)[C@@H]1OC(=O)C(C)C`, the EC50 – broadly, the midpoint of the concentration-response curve – in series [1] was 15 µM. Besides, the selectivity ratio in series [3] was 2.4. The CC50 (as a rule, the concentration giving 50% cytotoxicity) in series [4] turned out to be 36 µM.

In the case of `C=C1[C@H](OC(=O)C(C)C)[C@@H](OC(C)=O)[C@@H](OC(C)=O)C(C)(C)/C=C/[C@H](C)C(=O)[C@@]2(O)C[C@@](C)(OC(C)=O)[C@H](OC(=O)COC(=O)c3ccccc3)[C@@H]2[C@H]1OC(C)=O`, the EC50 in series [1] was found to be 5.5 µM. Besides, the selectivity ratio in series [3] was determined as 3.2. Besides, the CC50 in series [4] was found to be 17.7 µM.

On to `CC(=O)O[C@H]1[C@@H](OC(C)=O)C(C)(C)/C=C/[C@@](C)(O)C(=O)[C@@]2(OC(C)=O)C[C@@](C)(OC(C)=O)[C@H](OC(C)=O)[C@@H]2[C@H]2OC(=O)CC[C@@]2(OC(C)=O)[C@@H]1OC(=O)C(C)C`, for which the inhibition entry in series [1] was “inactive”.

In the case of `C=C1[C@H](OC(=O)c2ccccc2)[C@@H](OC(C)=O)[C@@H](OC(C)=O)C(C)(C)/C=C/[C@H](C)C(=O)[C@@]2(O)C[C@@](C)(OC(C)=O)[C@H](O)[C@@H]2[C@H]1OC(=O)c1ccccc1`, in series [1], the inhibition result is “inactive”. For the same compound, the Activity result in series [2] was “Non-Toxic”.
